Experimental data published in patent publication US20200325127A1, “PYRIDIN-3-YL ACETIC ACID DERIVATIVES AS INHIBITORS OF HUMAN IMMUNODEFICIENCY VIRUS REPLICATION” (priority 2016, published 2020).
Where two headings read alike, the source gives them in different places.

Test system: NL-RLuc virus
Assay: Inhibition of HIV replication (NL-RLuc luciferase reporter virus in MT-2 cells)
Format: cell-based
Settings: Human immunodeficiency virus 1, MT2, 120 h
Excerpt: Inhibition of HIV replication: A recombinant NL-RLuc proviral clone was constructed in which a section of the nef gene from NL4-3 was replaced with the Renilla Luciferase gene. This virus is fully infectious and can undergo multiple cycles of replication in cell culture. In addition, the luciferous reporter provides a simple and easy method for quantitating the extent of virus growth and consequently, the antiviral activity of test compounds. The plasmid pNLRLuc contains the proviral NL-Rluc DNA cloned into pUC18 at the PvuII site. The NL-RLuc virus was prepared by transfection of 293T cells with the plasmid pNLRLuc. Transfections were performed using the LipofectAMINE PLUS kit from Invitrogen (Carlsbad, Calif.) according to the manufacturer and the virus generated was titered in MT-2 cells. For susceptibility analyses, the titrated virus was used to infect MT-2 cells in the presence of compound, and after 5 days of incubation, cells were processed and quantitated for virus growth by the amount of expressed luciferase. Assay media was RPMI 1640 supplemented with 10% heat inactivated fetal bovine serum (FBS), 100 units/ml penicillin G/100 units/ml streptomycin, 10 mM HEPES buffer pH 7.55 and 2 mM L-glutamine. The results from at least 2 experiments were used to calculate the EC50 values. Luciferase was quantitated using the Dual Luciferase kit from Promega (Madison, Wis.). Susceptibility of viruses to compounds was determined by incubation in the presence of serial dilutions of the compound. The 50% effective concentration (EC50) was calculated by using the exponential form of the median effect equation where (Fa)=1/[1+(ED50/drug conc.)^m](Johnson V A, Byington R T. Infectivity Assay. In Techniques in HIV Research. ed. Aldovini A, Walker B D. 71-76. New York: Stockton Press. 1990). Activity equal to A refers to a compound having an EC50≤100 nM, while B and C denote compounds having an EC50 between 100 nM and 1 uM (B) or >1 uM (C).

| SMILES | EC50 (read-out: Activity) | EC50 (read-out: EC50 μM) |
| --- | --- | --- |
| Cc1nc(C)c([C@H](OC(C)(C)C)C(=O)O)c(N2CCC(C)(C)CC2)c1-c1ccc2c(c1)CCN(c1ncnc(Cl)c1N)C2 [Compound 54] | < 0.1 µM | – |
| COc1ccc(N2CCc3cc(-c4c(C)nc(C)c([C@H](OC(C)(C)C)C(=O)O)c4N4CCC(C)(C)CC4)ccc3C2)nn1 [Compound 47] | < 0.1 µM | – |
| Cc1nc(C)c([C@H](OC(C)(C)C)C(=O)O)c(N2CCC(C)(C)CC2)c1-c1ccc2c(c1)CCN(c1nnc(-c3ccccc3)cc1C(N)=O)C2 [Compound 9] | < 0.1 µM | – |
| Cc1nc(C)c([C@H](OC(C)(C)C)C(=O)O)c(N2CCC(C)(C)CC2)c1-c1ccc2c(c1)CCN(c1ncncc1-c1ccccc1)C2 [Compound 38] | < 0.1 µM | – |
| Cc1nc(C)c([C@H](OC(C)(C)C)C(=O)O)c(N2CCC(C)(C)CC2)c1-c1ccc2c(c1)CCN(c1ccnc(C3CC3)n1)C2 [Compound 59] | < 0.1 µM | – |
| Cc1nc(C)c([C@H](OC(C)(C)C)C(=O)O)c(N2CCC(C)(C)CC2)c1-c1ccc2c(c1)CCN(c1nc(N3CCOCC3)nc(N3CCOCC3)n1)C2 [Compound 37] | < 0.1 µM | – |
| Cc1nc(C)c([C@H](OC(C)(C)C)C(=O)O)c(N2CCC(C)(C)CC2)c1-c1ccc2c(c1)CCN(c1nnnn1-c1ccccc1)C2 [Compound 1] | < 0.1 µM | 0.006 µM |
| Cc1nc(C)c([C@H](OC(C)(C)C)C(=O)O)c(N2CCC(C)(C)CC2)c1-c1ccc2c(c1)CCN(c1nccc3ccccc13)C2 [Compound 78] | – | 0.003 µM |
| CCc1ccnc(N2CCc3cc(-c4c(C)nc(C)c([C@H](OC(C)(C)C)C(=O)O)c4N4CCC(C)(C)CC4)ccc3C2)n1 [Compound 32] | < 0.1 µM | – |
| Cc1nc(C)c([C@H](OC(C)(C)C)C(=O)O)c(N2CCC(C)(C)CC2)c1-c1ccc2c(c1)CCN(c1nccc(C#N)n1)C2 [Compound 26] | < 0.1 µM | – |
| Cc1nc(C)c([C@H](OC(C)(C)C)C(=O)O)c(N2CCC(C)(C)CC2)c1-c1ccc2c(c1)CCN(c1ncccn1)C2 [Compound 18] | < 0.1 µM | – |
| COc1cc2ncnc(N3CCc4cc(-c5c(C)nc(C)c([C@H](OC(C)(C)C)C(=O)O)c5N5CCC(C)(C)CC5)ccc4C3)c2cc1OC [Compound 84] | – | 0.002 µM |
| Cc1nc(C)c([C@H](OC(C)(C)C)C(=O)O)c(N2CCC(C)(C)CC2)c1-c1ccc2c(c1)CCN(c1ncncc1F)C2 [Compound 25] | < 0.1 µM | – |
| Cc1nc(NC(C)(C)C)cc(N2CCc3cc(-c4c(C)nc(C)c([C@H](OC(C)(C)C)C(=O)O)c4N4CCC(C)(C)CC4)ccc3C2)n1 [Compound 64] | < 0.1 µM | – |
| Cc1nc(C)c([C@H](OC(C)(C)C)C(=O)O)c(N2CCC(C)(C)CC2)c1-c1ccc2c(c1)CCN(c1cc(Cl)ncn1)C2 [Compound 27] | < 0.1 µM | – |
| Cc1nc(C)c([C@H](OC(C)(C)C)C(=O)O)c(N2CCC(C)(C)CC2)c1-c1ccc2c(c1)CCN(c1nnc(-c3ccccc3)cc1C#N)C2 [Compound 68] | < 0.1 µM | – |
| Cc1nc(C)c([C@H](OC(C)(C)C)C(=O)O)c(N2CCC(C)(C)CC2)c1-c1ccc2c(c1)CCN(c1cc(O)nc(N)n1)C2 [Compound 66] | 0.1 to 1 µM | 0.32 µM |
| Cc1cc(N2CCc3cc(-c4c(C)nc(C)c([C@H](OC(C)(C)C)C(=O)O)c4N4CCC(C)(C)CC4)ccc3C2)nc(C(C)C)n1 [Compound 44] | < 0.1 µM | – |
| Cc1nc(C)c([C@H](OC(C)(C)C)C(=O)O)c(N2CCC(C)(C)CC2)c1-c1ccc2c(c1)CCN(c1ncc(Cl)cn1)C2 [Compound 23] | < 0.1 µM | – |
| Cc1nc(C)c([C@H](OC(C)(C)C)C(=O)O)c(N2CCC(C)(C)CC2)c1-c1ccc2c(c1)CCN(c1nc3c(s1)C(=O)NCC3)C2 [Compound 4] | < 0.1 µM | – |
| Cc1nc(C)c([C@H](OC(C)(C)C)C(=O)O)c(N2CCC(C)(C)CC2)c1-c1ccc2c(c1)CCN(c1ccnc(C(F)(F)F)n1)C2 [Compound 60] | < 0.1 µM | – |
| Cc1nc(C)c([C@H](OC(C)(C)C)C(=O)O)c(N2CCC(C)(C)CC2)c1-c1ccc2c(c1)CCN(c1ncnc3c1CCCC3)C2 [Compound 15] | < 0.1 µM | – |
| Cc1nc(C)c([C@H](OC(C)(C)C)C(=O)O)c(N2CCC(C)(C)CC2)c1-c1ccc2c(c1)CCN(c1cc(-n3ccnc3)ncn1)C2 [Compound 49] | < 0.1 µM | – |
| Cc1nc(C)c([C@H](OC(C)(C)C)C(=O)O)c(N2CCC(C)(C)CC2)c1-c1ccc2c(c1)CCN(c1ccncn1)C2 [Compound 20] | < 0.1 µM | 0.002 µM |
| Cc1nccc(N2CCc3cc(-c4c(C)nc(C)c([C@H](OC(C)(C)C)C(=O)O)c4N4CCC(C)(C)CC4)ccc3C2)n1 [Compound 41] | < 0.1 µM | – |

| SMILES | EC50 (read-out: Activity) | EC50 (read-out: EC50 μM) |
| --- | --- | --- |
| Cc1cc(N2CCc3cc(-c4c(C)nc(C)c([C@H](OC(C)(C)C)C(=O)O)c4N4CCC(C)(C)CC4)ccc3C2)nc(N)n1 [Compound 61] | < 0.1 µM | – |
| Cc1cnc(N2CCc3cc(-c4c(C)nc(C)c([C@H](OC(C)(C)C)C(=O)O)c4N4CCC(C)(C)CC4)ccc3C2)nc1 [Compound 17] | < 0.1 µM | – |
| COc1ccc2c(N3CCc4cc(-c5c(C)nc(C)c([C@H](OC(C)(C)C)C(=O)O)c5N5CCC(C)(C)CC5)ccc4C3)ncnc2c1 [Compound 80] | – | 0.001 µM |
| Cc1nc(C)c([C@H](OC(C)(C)C)C(=O)O)c(N2CCC(C)(C)CC2)c1-c1ccc2c(c1)CCN(c1nccc3cccnc13)C2 [Compound 77] | – | 0.002 µM |
| Cc1nc(C)c([C@H](OC(C)(C)C)C(=O)O)c(N2CCC(C)(C)CC2)c1-c1ccc2c(c1)CCN(c1ccc3cnccc3n1)C2 [Compound 70] | – | 0.0005 µM |
| COc1ccc2cnc(N3CCc4cc(-c5c(C)nc(C)c([C@H](OC(C)(C)C)C(=O)O)c5N5CCC(C)(C)CC5)ccc4C3)nc2c1 [Compound 74] | – | 0.006 µM |
| Cc1nc(C)c([C@H](OC(C)(C)C)C(=O)O)c(N2CCC(C)(C)CC2)c1-c1ccc2c(c1)CCN(c1ccc(C(F)(F)F)nn1)C2 [Compound 35] | < 0.1 µM | 0.01 µM |
| Cc1nc(C)c([C@H](OC(C)(C)C)C(=O)O)c(N2CCC(C)(C)CC2)c1-c1ccc2c(c1)CCN(c1ncc(C#N)cn1)C2 [Compound 22] | 0.1 to 1 µM | – |
| Cc1nc(C)c([C@H](OC(C)(C)C)C(=O)O)c(N2CCC(C)(C)CC2)c1-c1ccc2c(c1)CCN(c1nccc(N3CCOCC3)n1)C2 [Compound 10] | < 0.1 µM | – |
| COc1ccc2ncnc(N3CCc4cc(-c5c(C)nc(C)c([C@H](OC(C)(C)C)C(=O)O)c5N5CCC(C)(C)CC5)ccc4C3)c2c1 [Compound 81] | – | 0.002 µM |
| COc1ccnc(N2CCc3cc(-c4c(C)nc(C)c([C@H](OC(C)(C)C)C(=O)O)c4N4CCC(C)(C)CC4)ccc3C2)n1 [Compound 12] | < 0.1 µM | – |
| Cc1nc2ccccc2nc1N1CCc2cc(-c3c(C)nc(C)c([C@H](OC(C)(C)C)C(=O)O)c3N3CCC(C)(C)CC3)ccc2C1 [Compound 87] | – | 0.01 µM |
| COCc1cc(N2CCc3cc(-c4c(C)nc(C)c([C@H](OC(C)(C)C)C(=O)O)c4N4CCC(C)(C)CC4)ccc3C2)ncn1 [Compound 51] | < 0.1 µM | – |
| Cc1nc(C)c([C@H](OC(C)(C)C)C(=O)O)c(N2CCC(C)(C)CC2)c1-c1ccc2c(c1)CCN(c1cc(Cl)cnn1)C2 [Compound 28] | < 0.1 µM | – |
| Cc1nc(C)c([C@H](OC(C)(C)C)C(=O)O)c(N2CCC(C)(C)CC2)c1-c1ccc2c(c1)CCN(c1ncc3ccccc3n1)C2 [Compound 73] | – | 0.002 µM |
| Cc1nc(C)c([C@H](OC(C)(C)C)C(=O)O)c(N2CCC(C)(C)CC2)c1-c1ccc2c(c1)CCN(c1cc(N3CCCC3)ncn1)C2 [Compound 48] | < 0.1 µM | 0.003 µM |
| Cc1nc(C)c([C@H](OC(C)(C)C)C(=O)O)c(N2CCC(C)(C)CC2)c1-c1ccc2c(c1)CCN(c1ccnc3cccnc13)C2 [Compound 88] | – | 0.001 µM |
| Cc1nc(C)c([C@H](OC(C)(C)C)C(=O)O)c(N2CCC(C)(C)CC2)c1-c1ccc2c(c1)CCN(c1nccc(-c3ccccc3)n1)C2 [Compound 8] | < 0.1 µM | – |
| Cc1nc(C)c([C@H](OC(C)(C)C)C(=O)O)c(N2CCC(C)(C)CC2)c1-c1ccc2c(c1)CCN(c1ncc3cc(Br)ccc3n1)C2 [Compound 72] | – | 0.004 µM |
| COc1cc(N2CCc3cc(-c4c(C)nc(C)c([C@H](OC(C)(C)C)C(=O)O)c4N4CCC(C)(C)CC4)ccc3C2)nc(SC)n1 [Compound 62] | < 0.1 µM | 0.004 µM |
| Cc1nc(C)c([C@H](OC(C)(C)C)C(=O)O)c(N2CCC(C)(C)CC2)c1-c1ccc2c(c1)CCN(c1nc(C(F)(F)F)cc3ccccc13)C2 [Compound 79] | – | 0.007 µM |
| Cc1nc(C)c([C@H](OC(C)(C)C)C(=O)O)c(N2CCC(C)(C)CC2)c1-c1ccc2c(c1)CCN(c1nccc3ncncc13)C2 [Compound 86] | – | 0.001 µM |
| Cc1nc(C)c([C@H](OC(C)(C)C)C(=O)O)c(N2CCC(C)(C)CC2)c1-c1ccc2c(c1)CCN(c1ncccc1C(=O)O)C2 [Compound 16] | 0.1 to 1 µM | – |
| CCc1cnc(N2CCc3cc(-c4c(C)nc(C)c([C@H](OC(C)(C)C)C(=O)O)c4N4CCC(C)(C)CC4)ccc3C2)nc1 [Compound 33] | < 0.1 µM | – |
| Cc1nc(C)c([C@H](OC(C)(C)C)C(=O)O)c(N2CCC(C)(C)CC2)c1-c1ccc2c(c1)CCN(c1ccccn1)C2 [Compound 46] | < 0.1 µM | – |
